Measured values: ChEMBL document CHEMBL6087462, “Cuminaldehyde Potentiates Antiproteolytic Peptide Efficacy via Parallel Pathways of Enhanced Inner Membrane-Damaging Activity and Inhibition of Bacterial Energy Metabolism” (J Med Chem, 2025)

Columns and labels:
Salmonella typhimurium [1] = experiment: Synergistic antimicrobial activity against Salmonella typhimurium 14028 assessed as fractional inhibitory concentration index in presence of perillaldehyde by checkerboard broth microdilution assay; format: functional, Salmonella enterica subsp. enterica serovar Typhimurium
Salmonella typhimurium [2] = experiment: Antimicrobial activity against Salmonella typhimurium ATCC 14028 assessed as reduction in microbial growth in presence of cuminaldehyde by CLSI based broth microdilution method; format: functional, Salmonella enterica subsp. enterica serovar Typhimurium; settings: Salmonella enterica
Salmonella typhimurium [3] = experiment: Synergistic antimicrobial activity against Salmonella typhimurium 14028 assessed as fractional inhibitory concentration index in presence of thymol by checkerboard broth microdilution assay; format: functional, Salmonella enterica subsp. enterica serovar Typhimurium
[4] = Antimicrobial activity against Salmonella enterica subsp. enterica serovar Pullorum ATCC 7913 assessed as cuminaldehyde MIC by CLSI based broth microdilution method; format: functional
Escherichia coli [5] = experiment: Synergistic antimicrobial activity against Escherichia coli 078 assessed as fractional inhibitory concentration index in presence of citral by checkerboard broth microdilution assay; format: functional, 78
Pseudomonas aeruginosa [6] = experiment: Antimicrobial activity against Pseudomonas aeruginosa ATCC 27853 assessed as reduction in microbial growth by CLSI based broth microdilution method; format: functional
Staphylococcus aureus [7] = experiment: Synergistic antimicrobial activity against Staphylococcus aureus 25923 assessed as fractional inhibitory concentration index in presence of citronellal by checkerboard broth microdilution assay; format: functional
[8] = tested on: Staphylococcus epidermidis; experiment: Antimicrobial activity against Staphylococcus epidermidis ATCC 12228 assessed as reduction in microbial growth in presence of cuminaldehyde by CLSI based broth microdilution method; format: functional
[9] = Synergistic antimicrobial activity against Salmonella enterica subsp. enterica serovar Pullorum 7913 assessed as fractional inhibitory concentration index in presence of thymol by checkerboard broth microdilution assay; format: functional
Escherichia coli [10] = experiment: Synergistic antimicrobial activity against Escherichia coli UB1005 assessed as fractional inhibitory concentration index in presence of carvacrol by checkerboard broth microdilution assay; format: functional
[11] = Antimicrobial activity against Salmonella enterica subsp. enterica serovar Pullorum ATCC 7913 assessed as reduction in microbial growth in presence of cuminaldehyde by CLSI based broth microdilution method; format: functional
Escherichia coli [12] = experiment: Synergistic antimicrobial activity against Escherichia coli K88 assessed as fractional inhibitory concentration index in presence of citral by checkerboard broth microdilution assay; format: functional
Pseudomonas aeruginosa [13] = experiment: Synergistic antimicrobial activity against Pseudomonas aeruginosa 27853 assessed as fractional inhibitory concentration index in presence of carvacrol by checkerboard broth microdilution assay; format: functional
Escherichia coli [14] = experiment: Synergistic antimicrobial activity against Escherichia coli K88 assessed as fractional inhibitory concentration index in presence of perillaldehyde by checkerboard broth microdilution assay; format: functional
Escherichia coli [15] = experiment: Synergistic antimicrobial activity against Escherichia coli K88 assessed as fractional inhibitory concentration index in presence of citronellal by checkerboard broth microdilution assay; format: functional
Escherichia coli [16] = experiment: Synergistic antimicrobial activity against Escherichia coli K88 assessed as fractional inhibitory concentration index in presence of cuminaldehyde by checkerboard broth microdilution assay; format: functional
Escherichia coli [17] = experiment: Synergistic antimicrobial activity against Escherichia coli UB1005 assessed as fractional inhibitory concentration index in presence of citral by checkerboard broth microdilution assay; format: functional
Salmonella typhimurium [18] = experiment: Synergistic antimicrobial activity against Salmonella typhimurium 14028 assessed as fractional inhibitory concentration index in presence of citral by checkerboard broth microdilution assay; format: functional, Salmonella enterica subsp. enterica serovar Typhimurium
Pseudomonas aeruginosa [19] = experiment: Antimicrobial activity against Pseudomonas aeruginosa ATCC 27853 assessed as reduction in microbial growth in presence of cuminaldehyde by CLSI based broth microdilution method; format: functional
Salmonella typhimurium [20] = experiment: Synergistic antimicrobial activity against Salmonella typhimurium 7731 assessed as fractional inhibitory concentration index in presence of perillaldehyde by checkerboard broth microdilution assay; format: functional, Salmonella enterica subsp. enterica serovar Typhimurium
Escherichia coli [21] = experiment: Synergistic antimicrobial activity against Escherichia coli UB1005 assessed as fractional inhibitory concentration index in presence of citronellal by checkerboard broth microdilution assay; format: functional
Staphylococcus aureus [22] = experiment: Antimicrobial activity against Staphylococcus aureus ATCC 25923 assessed as reduction in microbial growth in presence of cuminaldehyde by CLSI based broth microdilution method; format: functional
[23] = Antimicrobial activity against Salmonella enterica subsp. enterica serovar Pullorum ATCC 7913 assessed as reduction in microbial growth by CLSI based broth microdilution method; format: functional
Salmonella typhimurium [24] = experiment: Antimicrobial activity against Salmonella typhimurium ATCC 14028 assessed as cuminaldehyde MIC by CLSI based broth microdilution method; format: functional, Salmonella enterica subsp. enterica serovar Typhimurium; settings: Salmonella enterica
[25] = tested on: Staphylococcus epidermidis; experiment: Synergistic antimicrobial activity against Staphylococcus epidermidis 12228 assessed as fractional inhibitory concentration index in presence of thymol by checkerboard broth microdilution assay; format: functional
Escherichia coli [26] = experiment: Synergistic antimicrobial activity against Escherichia coli 25922 assessed as fractional inhibitory concentration index in presence of citral by checkerboard broth microdilution assay; format: functional
Escherichia coli [27] = experiment: Synergistic antimicrobial activity against Escherichia coli UB 1005 assessed as fractional inhibitory concentration by checkerboard broth microdilution assay; format: functional
Escherichia coli [28] = experiment: Antimicrobial activity against Escherichia coli ATCC 25922 assessed as reduction in microbial growth in presence of cuminaldehyde by CLSI based broth microdilution method; format: functional
Enterococcus faecalis = experiment: Antimicrobial activity against Enterococcus faecalis ATCC 29212 assessed as cuminaldehyde MIC by CLSI based broth microdilution method; format: functional
Escherichia coli [29] = experiment: Synergistic antimicrobial activity against Escherichia coli 078 assessed as fractional inhibitory concentration index in presence of thymol by checkerboard broth microdilution assay; format: functional, 78
Staphylococcus aureus [30] = experiment: Antimicrobial activity against Staphylococcus aureus ATCC 29213 assessed as cuminaldehyde MIC by CLSI based broth microdilution method; format: functional
Pseudomonas aeruginosa [31] = experiment: Synergistic antimicrobial activity against Pseudomonas aeruginosa 27853 assessed as fractional inhibitory concentration index in presence of citronellal by checkerboard broth microdilution assay; format: functional
Staphylococcus aureus [32] = experiment: Synergistic antimicrobial activity against Staphylococcus aureus 29213 assessed as fractional inhibitory concentration index in presence of citronellal by checkerboard broth microdilution assay; format: functional
Pseudomonas aeruginosa [33] = experiment: Synergistic antimicrobial activity against Pseudomonas aeruginosa 27853 assessed as fractional inhibitory concentration index in presence of perillaldehyde by checkerboard broth microdilution assay; format: functional
Escherichia coli [34] = experiment: Antimicrobial activity against Escherichia coli K88 assessed as reduction in microbial growth in presence of cuminaldehyde by CLSI based broth microdilution method; format: functional
Escherichia coli [35] = experiment: Synergistic antimicrobial activity against Escherichia coli UB1005 assessed as fractional inhibitory concentration index in presence of perillaldehyde by checkerboard broth microdilution assay; format: functional
Escherichia coli [36] = experiment: Drug resistance, ratio of MIC for Escherichia coli ATCC 25922 after 30 passages to MIC for Escherichia coli ATCC 25922 […] after initial exposure; format: functional
Escherichia coli [37] = experiment: Synergistic antimicrobial activity against Escherichia coli 25922 assessed as fractional inhibitory concentration index in presence of carvacrol by checkerboard broth microdilution assay; format: functional
Staphylococcus aureus [38] = experiment: Antimicrobial activity against Staphylococcus aureus 43300 assessed as reduction in microbial growth in presence of cuminaldehyde by CLSI based broth microdilution method; format: functional
Staphylococcus aureus [39] = experiment: Antimicrobial activity against Staphylococcus aureus 43300 assessed as reduction in microbial growth by CLSI based broth microdilution method; format: functional
Escherichia coli [40] = experiment: Synergistic antimicrobial activity against Escherichia coli 25922 assessed as fractional inhibitory concentration index by checkerboard broth microdilution assay; format: functional
[41] = tested on: Staphylococcus epidermidis; experiment: Antimicrobial activity against Staphylococcus epidermidis ATCC 12228 assessed as reduction in microbial growth by CLSI based broth microdilution method; format: functional

SMILES: CC[C@H](C)[C@H](NC(=O)[C@@H](NC(=O)[C@@H](CCCNC(=N)N)NC(=O)[C@H](C)NC(=O)[C@H](C)NC(=O)[C@@H](N)Cc1cccc2ccccc12)[C@@H](C)CC)C(=O)N[C@@H](CC(C)C)C(=O)N[C@H](CCCNC(=N)N)C(=O)N[C@@H](Cc1c[nH]c2ccccc12)C(=O)N[C@H](CCCNC(=N)N)C(=O)N[C@@H](Cc1ccccc1)C(=O)N[C@@H](CCCNC(=N)N)C(=O)O
- fractional inhibitory concentration index (FICI) (Salmonella typhimurium [1]): 0.254
- MIC (Salmonella typhimurium [2]): 0.5 µg/mL
- fractional inhibitory concentration index (FICI) (Salmonella typhimurium [3]): 0.313
- MIC [4]: 1020 µg/mL
- fractional inhibitory concentration index (FICI) (Escherichia coli [5]): 0.094
- MIC (Pseudomonas aeruginosa [6]): 32 µg/mL
- fractional inhibitory concentration index (FICI) (Staphylococcus aureus [7]): 0.25
- MIC [8]: 4 µg/mL
- fractional inhibitory concentration index (FICI) [9]: 0.75
- fractional inhibitory concentration index (FICI) (Escherichia coli [10]): 0.313
- MIC [11]: 0.5 µg/mL
- fractional inhibitory concentration index (FICI) (Escherichia coli [12]): 0.188
- fractional inhibitory concentration index (FICI) (Pseudomonas aeruginosa [13]): 0.5
- fractional inhibitory concentration index (FICI) (Escherichia coli [14]): 0.375
- fractional inhibitory concentration index (FICI) (Escherichia coli [15]): 0.156
- fractional inhibitory concentration index (FICI) (Escherichia coli [16]): 0.125
- fractional inhibitory concentration index (FICI) (Escherichia coli [17]): 0.257
- fractional inhibitory concentration index (FICI) (Salmonella typhimurium [18]): 0.141
- MIC (Pseudomonas aeruginosa [19]): 2 µg/mL
- fractional inhibitory concentration index (FICI) (Salmonella typhimurium [20]): 0.254
- fractional inhibitory concentration index (FICI) (Escherichia coli [21]): 0.266
- MIC (Staphylococcus aureus [22]): 8 µg/mL
- MIC [23]: 16 µg/mL
- MIC (Salmonella typhimurium [24]): 1020 µg/mL
- fractional inhibitory concentration index (FICI) [25]: 0.75
- fractional inhibitory concentration index (FICI) (Escherichia coli [26]): 0.25
- FIC (Escherichia coli [27]): 0.125
- MIC (Escherichia coli [28]): 1 µg/mL
- MIC (Enterococcus faecalis): 512 µg/mL
- fractional inhibitory concentration index (FICI) (Escherichia coli [29]): 0.5
- MIC (Staphylococcus aureus [30]): 512 µg/mL
- fractional inhibitory concentration index (FICI) (Pseudomonas aeruginosa [31]): 0.254
- fractional inhibitory concentration index (FICI) (Staphylococcus aureus [32]): 0.94
- fractional inhibitory concentration index (FICI) (Pseudomonas aeruginosa [33]): 0.141
- MIC (Escherichia coli [34]): 2 µg/mL
- fractional inhibitory concentration index (FICI) (Escherichia coli [35]): 0.281
- Ratio (Escherichia coli [36]): 2
- fractional inhibitory concentration index (FICI) (Escherichia coli [37]): 0.5
- MIC (Staphylococcus aureus [38]): 4 µg/mL
- MIC (Staphylococcus aureus [39]): 8 µg/mL
- fractional inhibitory concentration index (FICI) (Escherichia coli [40]): 0.25
- MIC [41]: 4 µg/mL
